From article PMC3973950, “Synthesis of 5-arylidine amino-1,3,4-thiadiazol-2-[(N-substituted benzyol)]sulphonamides endowed with potent antioxidants and anticancer activity induces growth inhibition in HEK293, BT474 and NCI-H226 cells” (Medicinal Chemistry Research, 2013)

Tested on: BT474 (breast cancer cell line)
Test: In vitro cytotoxicity by MTT assay, BT474
Type: cell-based
Conditions: Homo sapiens, BT-474, 0.005 μM, 72 h, read-out: % cytotoxicity (100 − % cell survival) of BT474 cell line
Method: (§1) The cancer cell line cultures of HEK 293 ([…]), BT474 (breast cancer cell line) and NCI-H226 (lung cancer) were obtained from Pasteur Institute of India, Coonoor, India, and were cultured in RPMI-1640 and 10 % heat-[…] New born calf serum with antibiotics [penicillin ([…]), streptomycin (100 μg/mL) and amphotericin B (25 μg/mL)]. The cells were maintained at 37 °C in a humidified atmosphere with 5 % CO2 and were subcultured twice a week.
(§2) The monolayer cell culture (100 μL) was trypsinized, and the cell count was adjusted to […] using medium containing 10 % new born calf serum. To each well of the 96-well microtitre plate, the diluted cell suspension (approximately 10,000 cells) (0.1 mL) was added and kept for 24 h in incubator at 37 °C in 5 % CO2 atmosphere for cell monolayer formation. After 24 h, when a partial monolayer was formed at the bottom of the well, the supernatant was flicked off, the monolayer was washed once, and different drugs, i.e. synthesized compounds (100 μL), were added to the cells in microtitre plates. The plates were then incubated at 37 °C for 3 days in 5 % CO2 atmosphere, and microscopic examination was carried out and observations recorded every 24 h. After 72 h, the sample solution in the wells was flicked off; MTT dye ([…]) was added to each well; plates were gently shaken and incubated for 4 h at 37 °C in 5 % CO2 incubator. The supernatant was removed and propanol (50 μL) was added; the plates were gently shaken to solubilize the formed formazan. The absorbance was measured using a microplate reader at a wavelength of 490 nm (Edmondson et al., [1988]; Prasad et al., [2005]; Chiruvella et al., [2008]; Chang et al., [2007]).

| Structure (SMILES) | cytotoxicity at 0.005 µM [%] |
| --- | --- |
| CC(=O)Nc1ccc(S(=O)(=O)Nc2nnc(S(=O)(=O)NC(=O)c3ccc(Cl)cc3)s2)cc1 [Compound 6g] | 30.5 |

Same assay, conditions: Homo sapiens, BT-474, 0.015 μM, 72 h, read-out: % cytotoxicity (100 − % cell survival) of BT474 cell line

| Structure (SMILES) | cytotoxicity at 0.015 µM [%] |
| --- | --- |
| CC(=O)Nc1ccc(S(=O)(=O)Nc2nnc(S(=O)(=O)NC(=O)c3ccc(Cl)cc3)s2)cc1 [Compound 6g] | 32.8 |

Same assay, conditions: Homo sapiens, BT-474, 0.045 μM, 72 h, read-out: % cytotoxicity (100 − % cell survival) of BT474 cell line

| Structure (SMILES) | cytotoxicity at 0.045 µM [%] |
| --- | --- |
| CC(=O)Nc1ccc(S(=O)(=O)Nc2nnc(S(=O)(=O)NC(=O)c3ccc(Cl)cc3)s2)cc1 [Compound 6g] | 33.9 |

Same assay, conditions: Homo sapiens, BT-474, 0.13 μM, 72 h, read-out: % cytotoxicity (100 − % cell survival) of BT474 cell line

| Structure (SMILES) | cytotoxicity at 0.13 µM [%] |
| --- | --- |
| CC(=O)Nc1ccc(S(=O)(=O)Nc2nnc(S(=O)(=O)NC(=O)c3ccc(Cl)cc3)s2)cc1 [Compound 6g] | 34.1 |

Same assay, conditions: Homo sapiens, BT-474, 0.41 μM, 72 h, read-out: % cytotoxicity (100 − % cell survival) of BT474 cell line

| Structure (SMILES) | cytotoxicity at 0.41 µM [%] |
| --- | --- |
| CC(=O)Nc1ccc(S(=O)(=O)Nc2nnc(S(=O)(=O)NC(=O)c3ccc(Cl)cc3)s2)cc1 [Compound 6g] | 37.6 |

Same assay, conditions: Homo sapiens, BT-474, 1.23 μM, 72 h, read-out: % cytotoxicity (100 − % cell survival) of BT474 cell line

| Structure (SMILES) | cytotoxicity at 1.23 µM [%] |
| --- | --- |
| CC(=O)Nc1ccc(S(=O)(=O)Nc2nnc(S(=O)(=O)NC(=O)c3ccc(Cl)cc3)s2)cc1 [Compound 6g] | 38.2 |

Same assay, conditions: Homo sapiens, BT-474, 3.7 μM, 72 h, read-out: % cytotoxicity (100 − % cell survival) of BT474 cell line

| Structure (SMILES) | cytotoxicity at 3.7 µM [%] |
| --- | --- |
| CC(=O)Nc1ccc(S(=O)(=O)Nc2nnc(S(=O)(=O)NC(=O)c3ccc(Cl)cc3)s2)cc1 [Compound 6g] | 39.5 |

Same assay, conditions: Homo sapiens, BT-474, 11.11 μM, 72 h, read-out: % cytotoxicity (100 − % cell survival) of BT474 cell line

| Structure (SMILES) | cytotoxicity at 11.11 µM [%] |
| --- | --- |
| CC(=O)Nc1ccc(S(=O)(=O)Nc2nnc(S(=O)(=O)NC(=O)c3ccc(Cl)cc3)s2)cc1 [Compound 6g] | 42.4 |

Same assay, conditions: Homo sapiens, BT-474, 33.33 μM, 72 h, read-out: % cytotoxicity (100 − % cell survival) of BT474 cell line

| Structure (SMILES) | cytotoxicity at 33.33 µM [%] |
| --- | --- |
| CC(=O)Nc1ccc(S(=O)(=O)Nc2nnc(S(=O)(=O)NC(=O)c3ccc(Cl)cc3)s2)cc1 [Compound 6g] | 44.2 |

Same assay, conditions: Homo sapiens, BT-474, 100 μM, 72 h, read-out: % cytotoxicity (100 − % cell survival) of BT474 cell line

| Structure (SMILES) | cytotoxicity at 100 µM [%] |
| --- | --- |
| CC(=O)Nc1ccc(S(=O)(=O)Nc2nnc(S(=O)(=O)NC(=O)c3ccc(Cl)cc3)s2)cc1 [Compound 6g] | 46.4 |

Tested on: NCI-H226 (lung cancer cell line)
Test: In vitro cytotoxicity by MTT assay, NCI-H226
Type: cell-based
Conditions: Homo sapiens, NCI-H226, 0.005 μM, 72 h, read-out: % Cytotoxicity (100 − % cell survival) of NCI-H226 cell line
Method: as §1, §2

| Structure (SMILES) | cytotoxicity at 0.005 µM [%] |
| --- | --- |
| CC(=O)Nc1ccc(S(=O)(=O)Nc2nnc(S(=O)(=O)NC(=O)c3ccc(Cl)cc3)s2)cc1 [Compound 6g] | 33.5 |

Same assay, conditions: Homo sapiens, NCI-H226, 0.045 μM, 72 h, read-out: % Cytotoxicity (100 − % cell survival) of NCI-H226 cell line

| Structure (SMILES) | cytotoxicity at 0.045 µM [%] |
| --- | --- |
| CC(=O)Nc1ccc(S(=O)(=O)Nc2nnc(S(=O)(=O)NC(=O)c3ccc(Cl)cc3)s2)cc1 [Compound 6g] | 36.8 |

Same assay, conditions: Homo sapiens, NCI-H226, 0.13 μM, 72 h, read-out: % Cytotoxicity (100 − % cell survival) of NCI-H226 cell line

| Structure (SMILES) | cytotoxicity at 0.13 µM [%] |
| --- | --- |
| CC(=O)Nc1ccc(S(=O)(=O)Nc2nnc(S(=O)(=O)NC(=O)c3ccc(Cl)cc3)s2)cc1 [Compound 6g] | 37.3 |

Same assay, conditions: Homo sapiens, NCI-H226, 0.41 μM, 72 h, read-out: % Cytotoxicity (100 − % cell survival) of NCI-H226 cell line

| Structure (SMILES) | cytotoxicity at 0.41 µM [%] |
| --- | --- |
| CC(=O)Nc1ccc(S(=O)(=O)Nc2nnc(S(=O)(=O)NC(=O)c3ccc(Cl)cc3)s2)cc1 [Compound 6g] | 39.8 |

Same assay, conditions: Homo sapiens, NCI-H226, 1.23 μM, 72 h, read-out: % Cytotoxicity (100 − % cell survival) of NCI-H226 cell line

| Structure (SMILES) | cytotoxicity at 1.23 µM [%] |
| --- | --- |
| CC(=O)Nc1ccc(S(=O)(=O)Nc2nnc(S(=O)(=O)NC(=O)c3ccc(Cl)cc3)s2)cc1 [Compound 6g] | 40.6 |

Same assay, conditions: Homo sapiens, NCI-H226, 3.7 μM, 72 h, read-out: % Cytotoxicity (100 − % cell survival) of NCI-H226 cell line

| Structure (SMILES) | cytotoxicity at 3.7 µM [%] |
| --- | --- |
| CC(=O)Nc1ccc(S(=O)(=O)Nc2nnc(S(=O)(=O)NC(=O)c3ccc(Cl)cc3)s2)cc1 [Compound 6g] | 41.3 |

Same assay, conditions: Homo sapiens, NCI-H226, 11.11 μM, 72 h, read-out: % Cytotoxicity (100 − % cell survival) of NCI-H226 cell line

| Structure (SMILES) | cytotoxicity at 11.11 µM [%] |
| --- | --- |
| CC(=O)Nc1ccc(S(=O)(=O)Nc2nnc(S(=O)(=O)NC(=O)c3ccc(Cl)cc3)s2)cc1 [Compound 6g] | 42.6 |

Same assay, conditions: Homo sapiens, NCI-H226, 33.33 μM, 72 h, read-out: % Cytotoxicity (100 − % cell survival) of NCI-H226 cell line

| Structure (SMILES) | cytotoxicity at 33.33 µM [%] |
| --- | --- |
| CC(=O)Nc1ccc(S(=O)(=O)Nc2nnc(S(=O)(=O)NC(=O)c3ccc(Cl)cc3)s2)cc1 [Compound 6g] | 43.2 |

Same assay, conditions: Homo sapiens, NCI-H226, 100 μM, 72 h, read-out: % Cytotoxicity (100 − % cell survival) of NCI-H226 cell line

| Structure (SMILES) | cytotoxicity at 100 µM [%] |
| --- | --- |
| CC(=O)Nc1ccc(S(=O)(=O)Nc2nnc(S(=O)(=O)NC(=O)c3ccc(Cl)cc3)s2)cc1 [Compound 6g] | 46 |

Tested on: not listed separately
Test: In vitro cytotoxicity by MTT assay, NCI-H226
Type: cell-based
Conditions: human, NCI-H226 lung cancer cells, 0.015 μM, read-out: % Cytotoxicity (100 − % cell survival) of NCI-H226 cell line
Method: as §1, §2

| Structure (SMILES) | cytotoxicity at 72 h, 0.015 µM [%] |
| --- | --- |
| CC(=O)Nc1ccc(S(=O)(=O)Nc2nnc(S(=O)(=O)NC(=O)c3ccc(Cl)cc3)s2)cc1 [Compound 6g] | 35 |

Tested on: not listed separately
Test: In vitro cytotoxicity by MTT assay, HEK 293
Type: cell-based, human
Conditions: human, HEK 293 cells, 0.005 μM, read-out: % cytotoxicity (100 − % cell survival) of HEK 293 cell line
Method: as §1, §2

| Structure (SMILES) | cytotoxicity at 72 h, 0.005 µM [%] |
| --- | --- |
| CC(=O)Nc1ccc(S(=O)(=O)Nc2nnc(S(=O)(=O)NC(=O)c3ccc(Cl)cc3)s2)cc1 [Compound 6g] | 15.1 |

Same assay, conditions: human, HEK 293 cells, 0.015 μM, read-out: % cytotoxicity (100 − % cell survival) of HEK 293 cell line

| Structure (SMILES) | cytotoxicity at 72 h, 0.015 µM [%] |
| --- | --- |
| CC(=O)Nc1ccc(S(=O)(=O)Nc2nnc(S(=O)(=O)NC(=O)c3ccc(Cl)cc3)s2)cc1 [Compound 6g] | 16.5 |

Same assay, conditions: human, HEK 293 cells, 0.045 μM, read-out: % cytotoxicity (100 − % cell survival) of HEK 293 cell line

| Structure (SMILES) | cytotoxicity at 72 h, 0.045 µM [%] |
| --- | --- |
| CC(=O)Nc1ccc(S(=O)(=O)Nc2nnc(S(=O)(=O)NC(=O)c3ccc(Cl)cc3)s2)cc1 [Compound 6g] | 18 |

Same assay, conditions: human, HEK 293 cells, 0.13 μM, read-out: % cytotoxicity (100 − % cell survival) of HEK 293 cell line

| Structure (SMILES) | cytotoxicity at 72 h, 0.13 µM [%] |
| --- | --- |
| CC(=O)Nc1ccc(S(=O)(=O)Nc2nnc(S(=O)(=O)NC(=O)c3ccc(Cl)cc3)s2)cc1 [Compound 6g] | 18.3 |

Same assay, conditions: human, HEK 293 cells, 0.41 μM, read-out: % cytotoxicity (100 − % cell survival) of HEK 293 cell line

| Structure (SMILES) | cytotoxicity at 72 h, 0.41 µM [%] |
| --- | --- |
| CC(=O)Nc1ccc(S(=O)(=O)Nc2nnc(S(=O)(=O)NC(=O)c3ccc(Cl)cc3)s2)cc1 [Compound 6g] | 20.1 |

Same assay, conditions: human, HEK 293 cells, 1.23 μM, read-out: % cytotoxicity (100 − % cell survival) of HEK 293 cell line

| Structure (SMILES) | cytotoxicity at 72 h, 1.23 µM [%] |
| --- | --- |
| CC(=O)Nc1ccc(S(=O)(=O)Nc2nnc(S(=O)(=O)NC(=O)c3ccc(Cl)cc3)s2)cc1 [Compound 6g] | 20.8 |

Same assay, conditions: human, HEK 293 cells, 3.7 μM, read-out: % cytotoxicity (100 − % cell survival) of HEK 293 cell line

| Structure (SMILES) | cytotoxicity at 72 h, 3.7 µM [%] |
| --- | --- |
| CC(=O)Nc1ccc(S(=O)(=O)Nc2nnc(S(=O)(=O)NC(=O)c3ccc(Cl)cc3)s2)cc1 [Compound 6g] | 24.2 |

Same assay, conditions: human, HEK 293 cells, 11.11 μM, read-out: % cytotoxicity (100 − % cell survival) of HEK 293 cell line

| Structure (SMILES) | cytotoxicity at 72 h, 11.11 µM [%] |
| --- | --- |
| CC(=O)Nc1ccc(S(=O)(=O)Nc2nnc(S(=O)(=O)NC(=O)c3ccc(Cl)cc3)s2)cc1 [Compound 6g] | 26.1 |

Same assay, conditions: human, HEK 293 cells, 33.33 μM, read-out: % cytotoxicity (100 − % cell survival) of HEK 293 cell line

| Structure (SMILES) | cytotoxicity at 72 h, 33.33 µM [%] |
| --- | --- |
| CC(=O)Nc1ccc(S(=O)(=O)Nc2nnc(S(=O)(=O)NC(=O)c3ccc(Cl)cc3)s2)cc1 [Compound 6g] | 28.7 |

Same assay, conditions: human, HEK 293 cells, 100 μM, read-out: % cytotoxicity (100 − % cell survival) of HEK 293 cell line

| Structure (SMILES) | cytotoxicity at 72 h, 100 µM [%] |
| --- | --- |
| CC(=O)Nc1ccc(S(=O)(=O)Nc2nnc(S(=O)(=O)NC(=O)c3ccc(Cl)cc3)s2)cc1 [Compound 6g] | 32 |
